Experiments:
Experiment in all cases: relative viability (nuclei count vs DMSO), 5 days (fraction); higher = more cells survive
[1] = system: NCI-H2085
Method in brief: (§1)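 The day after seeding in 1536-well plates, lung cancer cell lines were treated by pin tool with a single drug, or with a fixed anchor-drug dose together with five library-drug doses (not always all listed) in √10 steps. After 5 days, a combined fix-and-stain solution (final 0.05% Triton X-100, 1% formaldehyde, 1 ug/ml Hoechst) was added. Nuclei counted on 4× images gave relative viability as treated counts over vehicle counts, reported as the median of duplicate plates.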

[2] = system: BEN
Method in brief: as §1

[3] = system: NCI-H1437
Method in brief: as §1

[4] = system: NCI-H1975
Method in brief: as §1

[5] = system: NCI-H1666
Method in brief: as §1

[6] = system: HCC-44
Method in brief: as §1

[7] = system: H3255
Method in brief: as §1

[8] = system: PC-3 [JPC-3]
Method in brief: as §1

[9] = system: NCI-H358
Method in brief: as §1

[10] = system: LU99A
Method in brief: as §1

[11] = system: EKVX
Method in brief: as §1

[12] = system: NCI-H647
Method in brief: as §1

## C=C1C(=O)O[C@@H](CCCCCCCC)[C@@H]1C(=O)O [C-75] + N=C(N)NC(=N)NCCc1ccccc1 [Phenformin] (partner 250 µM)
[1]; first compound 0.08 µM
  relative viability: 0.827
[1]; first compound 0.253 µM
  relative viability: 0.693
[1]; first compound 0.8 µM
  relative viability: 0.629
[1]; first compound 2.53 µM
  relative viability: 0.63
[1]; first compound 8 µM
  relative viability: 0.67
[2]; first compound 0.08 µM
  relative viability: 0.266
[2]; first compound 0.253 µM
  relative viability: 0.274
[2]; first compound 0.8 µM
  relative viability: 0.297
[2]; first compound 8 µM
  relative viability: 0.258
[3]; first compound 0.08 µM
  relative viability: 0.322
[3]; first compound 0.253 µM
  relative viability: 0.323
[3]; first compound 0.8 µM
  relative viability: 0.302
[3]; first compound 2.53 µM
  relative viability: 0.284
[3]; first compound 8 µM
  relative viability: 0.296
[4]; first compound 0.08 µM
  relative viability: 0.403
[4]; first compound 0.253 µM
  relative viability: 0.398
[4]; first compound 0.8 µM
  relative viability: 0.389
[4]; first compound 2.53 µM
  relative viability: 0.345
[4]; first compound 8 µM
  relative viability: 0.412
[5]; first compound 0.08 µM
  relative viability: 0.586
[5]; first compound 0.253 µM
  relative viability: 0.602
[5]; first compound 0.8 µM
  relative viability: 0.56
[5]; first compound 2.53 µM
  relative viability: 0.559
[5]; first compound 8 µM
  relative viability: 0.51
[6]; first compound 0.08 µM
  relative viability: 0.294
[6]; first compound 0.253 µM
  relative viability: 0.185
[6]; first compound 0.8 µM
  relative viability: 0.176
[6]; first compound 2.53 µM
  relative viability: 0.157
[6]; first compound 8 µM
  relative viability: 0.142
[7]; first compound 0.08 µM
  relative viability: 0.345
[7]; first compound 0.253 µM
  relative viability: 0.352
[7]; first compound 0.8 µM
  relative viability: 0.392
[7]; first compound 2.53 µM
  relative viability: 0.337
[7]; first compound 8 µM
  relative viability: 0.331
[8]; first compound 0.08 µM
  relative viability: 0.457
[8]; first compound 0.253 µM
  relative viability: 0.468
[8]; first compound 0.8 µM
  relative viability: 0.47
[8]; first compound 2.53 µM
  relative viability: 0.48
[8]; first compound 8 µM
  relative viability: 0.503
[9]; first compound 0.08 µM
  relative viability: 0.306
[9]; first compound 0.253 µM
  relative viability: 0.328
[9]; first compound 0.8 µM
  relative viability: 0.296
[9]; first compound 2.53 µM
  relative viability: 0.326
[9]; first compound 8 µM
  relative viability: 0.215
[10]; first compound 0.08 µM
  relative viability: 0.848
[10]; first compound 0.253 µM
  relative viability: 0.863
[10]; first compound 0.8 µM
  relative viability: 0.816
[10]; first compound 2.53 µM
  relative viability: 0.749
[10]; first compound 8 µM
  relative viability: 0.641
[11]; first compound 0.08 µM
  relative viability: 0.213
[11]; first compound 0.253 µM
  relative viability: 0.228
[11]; first compound 0.8 µM
  relative viability: 0.232
[11]; first compound 8 µM
  relative viability: 0.25
[12]; first compound 0.08 µM
  relative viability: 0.52
[12]; first compound 0.253 µM
  relative viability: 0.58
[12]; first compound 0.8 µM
  relative viability: 0.417

— the supplement of paper PMC10307832
